Values belong to the compound of their own block, whether it stands above or below them. The source made the active and inactive calls.
Tests used:
[1] = target: T1, E3 ubiquitin-protein ligase XIAP (Homo sapiens, UniProt P98170); test: Counter Screen using XIAP-Bir3 for Chemical Antagonists of Bir1/2 domains of IAP-family anti-apoptotic proteins. [Related pubchem assays (depositor defined):AID1018, AID1449, AID1514, AID1638, AID1749, AID1750, AID488957, AID488963]
[2] = target: T1, E3 ubiquitin-protein ligase XIAP; test: XIAP antagonists, biochemical, IAP family, fluorescence polarization (AID 1018); assay type: functional
[3] = target: Delta-type opioid receptor (Homo sapiens, UniProt P41143); test: Counterscreen for agonists of heterodimerization of the mu 1 (OPRM1) and delta 1 (OPRD1) opioid receptors: Luminescence-based cell-based high throughput dose response assay to identify agonists of OPRD1 homodimerization. [Related pubchem assays (depositor defined):AID504326, AID504355, AID504692, AID504904, AID504905]; assay type: functional
Delta-type opioid receptor, sequence (P41143 whole entry): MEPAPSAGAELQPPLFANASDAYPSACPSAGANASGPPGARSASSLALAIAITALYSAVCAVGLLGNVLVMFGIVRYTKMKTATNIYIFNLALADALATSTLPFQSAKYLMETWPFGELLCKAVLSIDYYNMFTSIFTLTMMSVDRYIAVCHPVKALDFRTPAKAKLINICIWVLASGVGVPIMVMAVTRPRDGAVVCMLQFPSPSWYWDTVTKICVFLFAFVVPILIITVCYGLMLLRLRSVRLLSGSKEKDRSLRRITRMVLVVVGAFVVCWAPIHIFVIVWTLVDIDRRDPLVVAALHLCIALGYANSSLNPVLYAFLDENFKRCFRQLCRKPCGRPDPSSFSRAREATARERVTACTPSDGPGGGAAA

[4] = target: T2, Short transient receptor potential channel 4 (Mus musculus, UniProt Q9QUQ5); test: mouse TRPC4 channel activators, dose response, cell-based, HEK293 TRPC4/mu-opioid, Fluo-4 calcium (AID 434937); assay type: functional
T2 sequence (Q9QUQ5 whole entry): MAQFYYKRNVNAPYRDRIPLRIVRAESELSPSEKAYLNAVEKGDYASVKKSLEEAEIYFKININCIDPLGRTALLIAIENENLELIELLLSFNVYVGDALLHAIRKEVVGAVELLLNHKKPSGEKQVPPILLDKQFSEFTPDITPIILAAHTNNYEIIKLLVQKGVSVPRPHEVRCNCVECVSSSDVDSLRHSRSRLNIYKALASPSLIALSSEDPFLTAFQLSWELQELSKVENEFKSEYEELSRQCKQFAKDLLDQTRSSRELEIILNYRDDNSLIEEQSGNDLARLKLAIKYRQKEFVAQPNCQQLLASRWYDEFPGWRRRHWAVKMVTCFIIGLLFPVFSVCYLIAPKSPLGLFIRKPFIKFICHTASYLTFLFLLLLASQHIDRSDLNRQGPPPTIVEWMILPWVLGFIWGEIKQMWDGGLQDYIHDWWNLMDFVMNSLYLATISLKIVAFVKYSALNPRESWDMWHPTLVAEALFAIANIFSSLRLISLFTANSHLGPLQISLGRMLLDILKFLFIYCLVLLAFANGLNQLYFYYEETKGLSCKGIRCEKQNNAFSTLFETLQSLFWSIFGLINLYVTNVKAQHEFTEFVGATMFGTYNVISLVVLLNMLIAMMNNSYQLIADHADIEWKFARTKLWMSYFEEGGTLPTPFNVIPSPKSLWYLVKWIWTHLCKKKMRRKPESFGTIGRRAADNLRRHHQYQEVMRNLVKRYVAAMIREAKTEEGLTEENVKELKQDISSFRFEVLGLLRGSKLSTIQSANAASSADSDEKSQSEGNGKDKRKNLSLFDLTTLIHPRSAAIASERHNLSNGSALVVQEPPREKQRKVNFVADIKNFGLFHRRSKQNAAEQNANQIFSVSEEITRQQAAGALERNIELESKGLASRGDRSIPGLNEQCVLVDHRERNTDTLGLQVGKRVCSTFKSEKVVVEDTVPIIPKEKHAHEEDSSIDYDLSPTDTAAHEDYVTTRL

Mu-type opioid receptor = Mu-type opioid receptor (Homo sapiens, UniProt P35372); test: Counterscreen for agonists of heterodimerization of the mu 1 (OPRM1) and delta 1 (OPRD1) opioid receptors: Luminescence-based cell-based high throughput dose response assay to identify agonists of OPRM1 homodimerization.; assay type: functional;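 note: U2OS cells expressing OPRM1 and beta-arrestin as split beta-galactosidase partners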
Mu-type opioid receptor, sequence (P35372 whole entry): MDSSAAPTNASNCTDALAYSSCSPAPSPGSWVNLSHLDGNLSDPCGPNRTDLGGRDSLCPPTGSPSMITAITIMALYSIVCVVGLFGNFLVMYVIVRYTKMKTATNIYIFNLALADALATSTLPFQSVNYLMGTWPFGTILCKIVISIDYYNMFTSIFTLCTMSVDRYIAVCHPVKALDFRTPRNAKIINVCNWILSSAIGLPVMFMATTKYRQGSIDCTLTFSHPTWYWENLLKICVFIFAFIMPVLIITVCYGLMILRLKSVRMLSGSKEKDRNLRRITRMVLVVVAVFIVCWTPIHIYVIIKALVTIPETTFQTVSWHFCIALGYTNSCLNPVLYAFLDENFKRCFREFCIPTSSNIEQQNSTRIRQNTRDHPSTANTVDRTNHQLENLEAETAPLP

[5] = HEp-2 cell cytotoxicity, dose response, cytotoxicity control for RSV inhibitor project, HTS (AID 2410); assay type: functional; conditions: human respiratory syncytial virus
[6] = target: T3, Apoptotic protease-activating factor 1 (Homo sapiens, UniProt O14727); assay type: functional
T3 sequence (O14727 whole entry): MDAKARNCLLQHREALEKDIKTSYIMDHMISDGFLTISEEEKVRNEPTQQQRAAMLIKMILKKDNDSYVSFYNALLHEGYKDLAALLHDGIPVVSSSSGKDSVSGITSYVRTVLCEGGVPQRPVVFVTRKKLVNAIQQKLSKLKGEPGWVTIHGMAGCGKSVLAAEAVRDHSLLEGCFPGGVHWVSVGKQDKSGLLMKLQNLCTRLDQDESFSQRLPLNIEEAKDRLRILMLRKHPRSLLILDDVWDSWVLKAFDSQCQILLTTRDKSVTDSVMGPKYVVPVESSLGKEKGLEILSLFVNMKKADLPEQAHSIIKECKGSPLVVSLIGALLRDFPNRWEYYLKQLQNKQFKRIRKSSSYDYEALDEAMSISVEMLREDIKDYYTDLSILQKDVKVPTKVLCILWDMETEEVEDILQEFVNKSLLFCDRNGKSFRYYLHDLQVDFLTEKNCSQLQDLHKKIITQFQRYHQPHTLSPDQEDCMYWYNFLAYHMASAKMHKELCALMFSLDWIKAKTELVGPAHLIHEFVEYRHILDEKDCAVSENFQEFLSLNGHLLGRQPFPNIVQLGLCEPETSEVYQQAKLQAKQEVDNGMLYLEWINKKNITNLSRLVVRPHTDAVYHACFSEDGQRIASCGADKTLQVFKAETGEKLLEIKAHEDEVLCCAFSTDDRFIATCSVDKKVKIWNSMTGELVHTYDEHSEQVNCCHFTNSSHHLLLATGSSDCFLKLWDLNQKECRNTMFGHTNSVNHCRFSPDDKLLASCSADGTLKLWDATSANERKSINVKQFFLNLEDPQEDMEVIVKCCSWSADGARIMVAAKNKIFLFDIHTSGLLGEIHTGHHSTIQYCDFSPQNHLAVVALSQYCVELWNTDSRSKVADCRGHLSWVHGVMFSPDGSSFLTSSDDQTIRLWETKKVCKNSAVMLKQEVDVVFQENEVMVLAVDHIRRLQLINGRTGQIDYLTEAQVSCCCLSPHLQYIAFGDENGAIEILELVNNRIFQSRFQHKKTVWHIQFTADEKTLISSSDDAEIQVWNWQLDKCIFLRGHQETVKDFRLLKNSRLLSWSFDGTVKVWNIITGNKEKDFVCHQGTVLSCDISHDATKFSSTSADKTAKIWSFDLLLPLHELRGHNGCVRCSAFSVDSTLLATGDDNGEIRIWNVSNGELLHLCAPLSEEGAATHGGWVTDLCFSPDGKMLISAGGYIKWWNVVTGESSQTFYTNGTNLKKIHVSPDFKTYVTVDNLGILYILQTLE

[7] = target: T4, Ubiquitin-conjugating enzyme E2 N (Homo sapiens, UniProt P61088); assay type: functional;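 note: Dose-response confirmation in a TR-FRET assay detecting UBC13-driven polyubiquitin chain formation, inhibition measured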
T4 sequence (P61088 whole entry): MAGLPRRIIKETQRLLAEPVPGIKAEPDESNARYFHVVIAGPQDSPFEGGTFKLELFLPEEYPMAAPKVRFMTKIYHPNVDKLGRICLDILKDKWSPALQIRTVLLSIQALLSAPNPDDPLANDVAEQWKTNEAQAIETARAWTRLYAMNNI

[8] = target: 5-hydroxytryptamine receptor 5A (Homo sapiens, UniProt P47898); test: Counterscreen for agonists of OPRM1-OPRD1 heterodimerization: luminescence-based cell-based high throughput dose response assay to identify agonists of 5-hydroxytryptamine (serotonin) 5A receptor (HTR5A). [Related pubchem assays (depositor defined):AID504326, AID504355, AID504692, AID504904, AID504905]; assay type: functional
5-hydroxytryptamine receptor 5A, sequence (P47898 whole entry, the tested form may be a part): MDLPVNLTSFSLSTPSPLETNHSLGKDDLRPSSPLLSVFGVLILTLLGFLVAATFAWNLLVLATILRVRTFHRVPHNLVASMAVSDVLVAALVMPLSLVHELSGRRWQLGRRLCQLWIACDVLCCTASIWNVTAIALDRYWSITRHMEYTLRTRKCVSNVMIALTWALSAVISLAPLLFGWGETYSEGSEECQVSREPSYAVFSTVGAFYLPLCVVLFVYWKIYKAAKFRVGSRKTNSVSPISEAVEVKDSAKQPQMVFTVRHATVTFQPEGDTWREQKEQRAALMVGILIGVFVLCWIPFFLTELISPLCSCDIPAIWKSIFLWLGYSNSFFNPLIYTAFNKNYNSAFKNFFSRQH

[9] = target: T5, Type-1 angiotensin II receptor (Homo sapiens, UniProt P30556); test: AT1 receptor agonists, dose response, selectivity assay for APJ receptor agonist project, cell-based, uHTS hits (AID 488865); assay type: functional;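 note: beta-arrestin recruitment to AT1 measured by enzyme fragment complementation luminescence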
T5 sequence (P30556 whole entry): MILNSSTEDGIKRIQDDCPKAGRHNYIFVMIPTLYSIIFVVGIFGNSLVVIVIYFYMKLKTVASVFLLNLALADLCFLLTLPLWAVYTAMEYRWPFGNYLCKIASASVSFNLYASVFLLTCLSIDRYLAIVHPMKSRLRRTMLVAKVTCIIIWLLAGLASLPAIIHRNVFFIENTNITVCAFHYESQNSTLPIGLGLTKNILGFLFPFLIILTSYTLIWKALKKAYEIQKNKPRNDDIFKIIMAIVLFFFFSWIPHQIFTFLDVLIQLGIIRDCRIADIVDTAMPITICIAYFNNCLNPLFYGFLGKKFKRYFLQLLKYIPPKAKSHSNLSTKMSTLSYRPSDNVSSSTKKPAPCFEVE

[10] = target: T6, Runt-related transcription factor 1/Core-binding factor subunit beta (Homo sapiens, UniProt Q01196+Q13951); test: inhibitors of RUNX1 Runt–CBFb-SMMHC binding, biochemical, TR-FRET (AID 1438); assay type: protein assay
T6 sequence (Q01196 whole entry): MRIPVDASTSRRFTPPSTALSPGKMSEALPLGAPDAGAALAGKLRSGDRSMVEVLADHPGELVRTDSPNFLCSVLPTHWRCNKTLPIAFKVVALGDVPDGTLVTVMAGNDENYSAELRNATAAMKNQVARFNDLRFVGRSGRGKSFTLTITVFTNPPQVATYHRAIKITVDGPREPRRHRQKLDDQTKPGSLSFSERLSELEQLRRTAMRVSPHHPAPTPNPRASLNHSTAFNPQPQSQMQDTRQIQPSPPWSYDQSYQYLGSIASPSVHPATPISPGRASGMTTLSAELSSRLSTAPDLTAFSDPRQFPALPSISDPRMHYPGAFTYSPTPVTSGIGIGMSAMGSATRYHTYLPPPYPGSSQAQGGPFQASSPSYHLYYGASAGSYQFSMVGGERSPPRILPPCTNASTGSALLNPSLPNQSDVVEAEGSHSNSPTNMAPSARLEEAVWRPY
T6 sequence (Q13951 whole entry): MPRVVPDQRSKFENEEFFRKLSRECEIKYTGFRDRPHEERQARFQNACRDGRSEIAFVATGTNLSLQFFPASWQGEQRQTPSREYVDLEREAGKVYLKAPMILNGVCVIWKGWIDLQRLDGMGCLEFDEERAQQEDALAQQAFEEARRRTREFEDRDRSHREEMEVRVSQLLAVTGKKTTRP

[11] = target: T7, Polyadenylate-binding protein 1 (Homo sapiens, UniProt P11940); test: PABP1 MLLE–PAM2 interaction inhibitors, dose response, miRNA deadenylation inhibitor project, biochemical, fluorescence polarization, Cy5-PAM2 peptide, secondary (AID 602260); assay type: functional; conditions: read-out: IC50_Mean
T7 sequence (P11940 whole entry, the tested form may be a part): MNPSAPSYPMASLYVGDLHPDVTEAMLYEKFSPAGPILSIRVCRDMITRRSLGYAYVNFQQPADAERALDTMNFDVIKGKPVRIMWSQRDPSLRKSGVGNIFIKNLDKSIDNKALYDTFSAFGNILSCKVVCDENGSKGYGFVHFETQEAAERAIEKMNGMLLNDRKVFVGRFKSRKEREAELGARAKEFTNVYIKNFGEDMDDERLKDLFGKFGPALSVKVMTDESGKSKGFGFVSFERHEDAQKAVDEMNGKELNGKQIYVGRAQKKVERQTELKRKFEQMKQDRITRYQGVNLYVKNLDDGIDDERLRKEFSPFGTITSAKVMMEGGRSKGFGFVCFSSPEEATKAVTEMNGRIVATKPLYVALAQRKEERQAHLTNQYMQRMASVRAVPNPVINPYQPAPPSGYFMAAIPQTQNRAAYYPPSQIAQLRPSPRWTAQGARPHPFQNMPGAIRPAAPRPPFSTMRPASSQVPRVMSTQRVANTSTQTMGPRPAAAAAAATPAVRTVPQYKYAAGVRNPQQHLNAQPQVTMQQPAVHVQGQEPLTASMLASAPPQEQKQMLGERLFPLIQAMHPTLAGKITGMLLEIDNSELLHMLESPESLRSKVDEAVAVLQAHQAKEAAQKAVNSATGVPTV

[12] = target: T6, Runt-related transcription factor 1/Core-binding factor subunit beta; test: inhibitors of RUNX1 Runt–CBFb-SMMHC binding, primary screen, biochemical, FRET, Cerulean-Runt, Venus-CBFb-SMMHC, uHTS (AID 1434); assay type: protein assay;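 note: partner is the CBFb-SMMHC leukemia fusion protein rather than wild-type CBFb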
[13] = target: T7, Polyadenylate-binding protein 1; test: PABP1 MLLE–PAM2 binding inhibitor potency, dose response, biochemical, fluorescence polarization, FITC-PAM2 peptide (AID 602259); assay type: functional; conditions: read-out: IC50_Mean
[14] = ADAM10 protease inhibitors, dose response, selectivity assay for ADAM17 exosite inhibitor project, biochemical, FRET peptide substrate, recombinant human ADAM10 (AID 743259);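 note: ADAM10 enzyme cleaving a FRET peptide substrate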
[15] = target: Disintegrin and metalloproteinase domain-containing protein 17 (Homo sapiens, UniProt P78536); test: exosite inhibitors of ADAM17, dose response, biochemical (AID 743260)
Disintegrin and metalloproteinase domain-containing protein 17, sequence (P78536 whole entry, the tested form may be a part): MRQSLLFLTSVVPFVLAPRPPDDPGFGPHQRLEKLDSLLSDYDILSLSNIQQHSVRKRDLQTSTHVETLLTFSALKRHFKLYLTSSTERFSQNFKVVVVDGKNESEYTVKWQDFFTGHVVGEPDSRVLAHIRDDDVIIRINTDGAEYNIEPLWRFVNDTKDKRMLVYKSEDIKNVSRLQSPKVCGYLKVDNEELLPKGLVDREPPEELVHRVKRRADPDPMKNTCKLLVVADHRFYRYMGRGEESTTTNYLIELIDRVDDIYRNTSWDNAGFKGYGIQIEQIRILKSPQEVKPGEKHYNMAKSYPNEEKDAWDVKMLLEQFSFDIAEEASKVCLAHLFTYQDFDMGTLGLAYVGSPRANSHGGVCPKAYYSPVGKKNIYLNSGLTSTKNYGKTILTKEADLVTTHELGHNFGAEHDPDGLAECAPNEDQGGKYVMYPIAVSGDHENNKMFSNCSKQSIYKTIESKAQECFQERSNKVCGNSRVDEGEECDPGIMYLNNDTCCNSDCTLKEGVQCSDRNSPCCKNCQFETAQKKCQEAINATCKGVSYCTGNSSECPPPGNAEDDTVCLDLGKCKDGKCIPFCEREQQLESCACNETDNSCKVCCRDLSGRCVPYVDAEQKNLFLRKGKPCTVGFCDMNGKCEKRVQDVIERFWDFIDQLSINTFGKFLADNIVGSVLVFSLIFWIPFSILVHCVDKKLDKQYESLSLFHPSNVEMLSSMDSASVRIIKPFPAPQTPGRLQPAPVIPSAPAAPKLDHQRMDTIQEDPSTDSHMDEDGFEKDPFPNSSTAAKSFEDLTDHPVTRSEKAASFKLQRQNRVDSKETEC

[16] = target: DNA damage-inducible transcript 3 protein (Mus musculus, UniProt P35639); assay type: functional, Cricetulus griseus
DNA damage-inducible transcript 3 protein, sequence (P35639 whole entry): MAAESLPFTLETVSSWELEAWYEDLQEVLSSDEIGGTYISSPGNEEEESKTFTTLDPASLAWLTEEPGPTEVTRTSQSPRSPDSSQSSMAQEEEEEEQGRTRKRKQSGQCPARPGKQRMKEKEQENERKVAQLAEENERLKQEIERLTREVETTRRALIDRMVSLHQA

T1 sequence (P98170 whole entry): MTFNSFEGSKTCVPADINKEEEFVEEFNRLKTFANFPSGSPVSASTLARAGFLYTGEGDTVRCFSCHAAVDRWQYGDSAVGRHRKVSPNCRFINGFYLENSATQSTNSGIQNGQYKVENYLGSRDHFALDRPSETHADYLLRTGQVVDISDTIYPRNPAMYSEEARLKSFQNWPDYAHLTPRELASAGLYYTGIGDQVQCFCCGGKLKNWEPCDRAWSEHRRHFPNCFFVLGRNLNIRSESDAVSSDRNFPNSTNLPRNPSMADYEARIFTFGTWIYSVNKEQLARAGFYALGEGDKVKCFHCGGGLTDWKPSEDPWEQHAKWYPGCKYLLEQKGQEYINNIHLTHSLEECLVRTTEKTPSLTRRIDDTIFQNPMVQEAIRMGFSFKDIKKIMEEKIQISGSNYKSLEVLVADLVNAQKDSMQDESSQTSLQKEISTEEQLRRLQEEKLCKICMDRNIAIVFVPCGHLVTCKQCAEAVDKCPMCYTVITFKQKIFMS

- IC50 [1]: > 100 µM (inactive)
- IC50 [2]: > 100 µM (not active)
SMILES: CSc1nc(N)nc(SCC(=O)Nc2cccc(F)c2)c1C#N

- EC50 [3]: > 92.5 µM (inactive)
- EC50 [4]: 596 nM (active)
- EC50 (Mu-type opioid receptor): 3.28 µM (active)
- IC50 [6]: 47.9 µM (active)
- IC50 [7]: > 20 µM (inactive)
- EC50 [8]: > 92.5 µM (inactive)
- EC50 [9]: > 100 µM (inactive)
SMILES: CN(C)CCCN(C(=O)c1ccc(S(=O)(=O)N2CCc3ccccc3C2)cc1)c1nc2ccc(F)cc2s1
- CC50 [5]: 31.1 µM (active)

SMILES: N#Cc1cc2c(=O)n3ccccc3nc2n(Cc2ccco2)/c1=N/C(=O)c1ccco1
- IC50 [10]: 56.1 µM (inactive)
- IC50 [11]: > 66 µM (inactive)
- IC50 [12]: 1.67 µM (active)
- IC50 [13]: > 66 µM (inactive)

- IC50 [15]: > 69.5 µM (inactive)
SMILES: Sc1nnc(C2CCCCC2)n1/N=C/C=C/c1ccccc1
- IC50 [14]: 13.7 µM (inactive)
- Absolute IC50 (CHOP) [16]: 10 µM
